Converted amounts (≈) assume the structure as drawn. Like-named read-outs stand apart in the source and are kept apart here.
How the values were obtained:
Streptococci = assay: Minimum inhibitory concentration, microdilution broth method, streptococci; assay type: cell-based; conditions: Mueller-Hinton broth with 5% horse blood, 18-22 hours at 35° C.; for MIC: S. pneumo GC 1894
Method: (§1) Evaluation of the Minimum Inhibitory Concentration of Test Compounds Against A Variety of Bacterial Strains
(§2) In this evaluation the minimal inhibitory concentration (MIC) of test compounds against Gram positive and Gram negative bacteria is performed using the microdilution broth method as recommended by the National Committee for Clinical Laboratory Standards (Approved Standards M7-A5 2000). Mueller-Hinton broth is used for the enterobacteriaceae, staphylococci and enterococci. Streptococci are also tested in Mueller-Hinton broth supplemented with 5% horse blood (LHB). Test organisms include recent clinical isolates that are resistant to methicillin, penicillin and/or vancomycin. […].

staphylococci = assay: Minimum inhibitory concentration, microdilution broth method, staphylococci; assay type: cell-based; conditions: Mueller-Hinton broth, 18-22 hours at 35° C.; for MIC: Staphylococcus aureus
Method: as §1, §2

enterococci = assay: Minimum inhibitory concentration, microdilution broth method, enterococci; assay type: cell-based; conditions: Mueller-Hinton broth, 18-22 hours at 35° C.; for MIC: Enterococcus faecalis
Method: as §1, §2

[1] = target: E. coli Uridine-diphosphate-N-acetvimuramoyl: L-alanine lipase, MurC (Escherichia coli, UniProt P17952); assay: Inhibitory activity against MurC (E. coli); assay type: biochemical
E. coli Uridine-diphosphate-N-acetvimuramoyl: L-alanine lipase, MurC, sequence (P17952 whole entry): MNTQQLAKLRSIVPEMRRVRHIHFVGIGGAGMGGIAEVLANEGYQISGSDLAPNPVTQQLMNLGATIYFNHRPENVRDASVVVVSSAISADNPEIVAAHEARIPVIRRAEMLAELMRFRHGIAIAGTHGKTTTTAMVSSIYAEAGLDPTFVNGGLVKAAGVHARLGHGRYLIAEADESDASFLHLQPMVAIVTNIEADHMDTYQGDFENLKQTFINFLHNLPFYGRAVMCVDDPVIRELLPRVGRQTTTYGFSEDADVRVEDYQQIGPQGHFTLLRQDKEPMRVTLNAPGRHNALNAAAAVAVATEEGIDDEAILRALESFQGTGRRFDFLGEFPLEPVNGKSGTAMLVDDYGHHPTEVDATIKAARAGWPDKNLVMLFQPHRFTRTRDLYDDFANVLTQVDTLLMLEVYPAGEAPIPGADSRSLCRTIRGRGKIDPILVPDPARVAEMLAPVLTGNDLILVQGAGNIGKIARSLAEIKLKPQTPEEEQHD
Method: S. aureus and E. coli Uridine-diphosphate-N-acetvimuramoyl: L-alanine lipase, MurC
The buffer is prepared from aqueous reagents with the following final concentrations: 83 mM Tris/HCl (pH 8.0), 50 mM MgC12, and 2 mM ATP.
(§3) Preparation of Enzyme Solution:
A 1 mg/mL stock solution of MurC is prepared in a buffer consisting of 20 mM Tris/HCl (pH 8.5) with 2.5 μM BME. The stock solution is further diluted with the buffer to give a final enzyme concentration of 100 μg/mL for the E. coli stock solution and 70 μg/mL for the S. aureus stock solution.
(§4) Preparation of Test Compound Solutions:
(§5) All test solutions are prepared in DMSO as 10 mg/mL, then diluted with 50 mM Tris/HCl (pH 8.5) to 100 μg/mL.
(§6) Preparation of Stop Solution:
The stop solution is prepared by stirring 1 part 4.2% ammonium molydbate in 4N HCl with 2 parts 0.045% malachite green for 30 min.
In this evaluation, the inhibitory activity of a test compound against MurC, the enzyme which catalyzes the third step of bacterial cell wall bioxynthesis is determined. Experiments are performed by adding 2.5 μl buffer, 2.5 μl 0.5M NH4SO2, 5 μl 2 μM L-Ala, 5 μl enzyme solution and 6.5 μl test compound solution to each well in a 96-well microplate. After a pre-incubation period of 10 mins. at 23° C., 3.75 μl of a 0.75 μM solution of UDP-MurNac is added to each well. Following an incubation period of 10 mins. at 37° C., 210 μl stop solution and 50 μl of a 34% w/v sodium citrate solution are added and color is allowed to develop for 10 mins. at 23° C. (Lanzetta et al., Analytical Biochemistry, 1979, 95) Optical density readings are taken at 660 nm using a Molecular Devices Spectra Max 250 with Soft Max software. Controls are performed using the same procedure and omitting the addition of UDP-MurNac.
Using these values the IC50 is determined by linear regression analysis.

[2] = target: E. coli Enopyruvyl-UPD-N-acetylglucosamine reductase, Mur B (Escherichia coli, UniProt P08373); assay: biochemical; conditions: (E) E. coli enzyme; for IC50: read-out: MurB IC50 (converted)
E. coli Enopyruvyl-UPD-N-acetylglucosamine reductase, Mur B, sequence (P08373 whole entry): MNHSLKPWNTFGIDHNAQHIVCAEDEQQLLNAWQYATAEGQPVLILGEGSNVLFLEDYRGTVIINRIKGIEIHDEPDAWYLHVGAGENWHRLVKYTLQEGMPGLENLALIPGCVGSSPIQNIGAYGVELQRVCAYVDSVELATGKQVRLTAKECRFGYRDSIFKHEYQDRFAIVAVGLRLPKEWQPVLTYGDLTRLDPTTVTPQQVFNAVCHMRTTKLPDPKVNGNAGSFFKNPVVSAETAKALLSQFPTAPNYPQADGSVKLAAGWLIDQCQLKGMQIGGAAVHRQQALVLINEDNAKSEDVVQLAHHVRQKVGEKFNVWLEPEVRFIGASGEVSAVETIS
Method: S. aureus and E. coli Enopyruvyl-UPD-N-acetylglucosamine reductase, Mur B
Preparation of Tris/BME buffer:
Dilute 17.5 uL of aqueous 5 mM BME (2-mercaptoethanol) to 50 mL with 50 mM Tris/HCl (pH 8.0).
as §3
Dilute aqueous MurB stock solution (0.94 mg/mL) with 200 parts 50 mM Tris/2-BME buffer.
Synthesis of Substrate for MurB (MurA Product EP-UDP-GluNAc):
A mixture of 13 mg UDP-N-acetylglucosamine and 5.5 mg phosphoenolpyruvate are dissolved in 10 mL Tris/BME buffer forming 2 mM concentrations of each reagent in solution.
Preparation of Assay Buffer:
The assay buffer is prepared in water from reagents with the following final concentrations: 100 mM Tris/HCl (pH 8.0), 200 μM NADPH, 100 μM MurB substrate, 10 μM 2-mercaptoethanol, and 10 μM KCl.
Experiments are performed by adding 20 μL of a solution of test compound in a mixture of dimethylsulfoxide and water and 30 μL of enzyme solution to a well. After a pre-incubation period of 20 mins. at 23° C., 50 μL of Tris/BME buffer and 100 μL of assay buffer are added. […] Controls are performed using the same procedure and employing 20 μL of a blank dimethylsulfonide and solvent mixture in place of the test compound solution.
Using these values, the IC50 for each test compound is determined by linear regression analysis.

[3] = target: T1, S. aureus Uridine-diphosphate-N-acetylmuramoyl-L-alanine: D-glutamate liease, MurD (Staphylococcus aureus, UniProt Q2FZ92); assay: biochemical; conditions: (S) S. aureus enzyme
T1 sequence (Q2FZ92 1-449): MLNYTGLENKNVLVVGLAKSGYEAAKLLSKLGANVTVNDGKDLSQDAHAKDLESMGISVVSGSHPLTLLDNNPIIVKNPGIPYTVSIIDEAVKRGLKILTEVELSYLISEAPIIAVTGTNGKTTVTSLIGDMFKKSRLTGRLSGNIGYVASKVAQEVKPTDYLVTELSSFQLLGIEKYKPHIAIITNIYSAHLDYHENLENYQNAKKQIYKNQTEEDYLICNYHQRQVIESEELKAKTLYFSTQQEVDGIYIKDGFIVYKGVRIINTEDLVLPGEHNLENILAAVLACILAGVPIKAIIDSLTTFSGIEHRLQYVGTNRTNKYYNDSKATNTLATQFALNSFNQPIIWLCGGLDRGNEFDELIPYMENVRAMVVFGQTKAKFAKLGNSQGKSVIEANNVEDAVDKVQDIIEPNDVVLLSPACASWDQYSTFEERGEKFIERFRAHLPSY
Method: (§7) S. aureus and E. coli Uridine-diphosphate-N-acetylmuramoyl-L-alanine: D-glutamate liease, MurD
as §3, §4, §5, §6
(§8) In this evaluation, the inhibitory activity of a test compound against MurD, the enzyme which catalyzes the fourth step of bacterial cell wall biosynthesis is determined.

[4] = target: E. coli UDP-N-acetylglucosamine enolpyruvoyl transferase, MurA (Escherichia coli, UniProt P0A749); assay: biochemical; conditions: (E) E. coli enzyme
E. coli UDP-N-acetylglucosamine enolpyruvoyl transferase, MurA, sequence (P0A749 whole entry): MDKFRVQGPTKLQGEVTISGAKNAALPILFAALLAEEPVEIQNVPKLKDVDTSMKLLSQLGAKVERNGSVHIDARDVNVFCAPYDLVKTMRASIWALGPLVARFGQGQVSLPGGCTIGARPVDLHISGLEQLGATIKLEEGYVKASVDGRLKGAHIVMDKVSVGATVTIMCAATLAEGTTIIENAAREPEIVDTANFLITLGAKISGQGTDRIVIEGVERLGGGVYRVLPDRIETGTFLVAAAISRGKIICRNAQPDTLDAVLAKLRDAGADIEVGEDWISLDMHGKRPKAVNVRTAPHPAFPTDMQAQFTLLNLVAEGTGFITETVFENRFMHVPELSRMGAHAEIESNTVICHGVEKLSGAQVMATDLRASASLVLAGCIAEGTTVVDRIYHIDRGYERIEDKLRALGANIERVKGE
Method: Evaluation of the Inhibitory Activity of Test Compounds Against Enzymes which Catalyze Bacterial Cell Wall Biosynthesis
S. aureus and E. coli UDP-N-acetylglucosamine enolpyruvoyl transferase, MurA
as §3
The enzyme solution is prepared by admixing the following: 50 mM Tris/HCl pH 8.0, […] 1 M Tris, 5 mM DTT, […] 1 M DTT, 20% Glycerol 4 ml 50% Glycerol, add water to 10 ml.
as §6
A procedure similar to that described by C. […] Experiments are performed by adding a solution of test compound (in a mixture of dimethylsulfoxide and water) and an enzyme solution to a well. After a pre-incubation period of 10 mintues at 37° C., Tris/BME buffer and assay buffer are added. A start point optical density (OD0) reading is taken at 340 nm immediately following the addition of assay buffer. After incubation for 1 hr at 37° C., the stop solution is added and the color is allowed to develop for 30 minutes.

[5] = target: E. coli Uridine-diphosphate-N-acetylmuramoyl-L-alanine: D-glutamate liease, MurD (Escherichia coli, UniProt P14900); assay: biochemical; conditions: (E) E. coli enzyme
E. coli Uridine-diphosphate-N-acetylmuramoyl-L-alanine: D-glutamate liease, MurD, sequence (P14900 whole entry): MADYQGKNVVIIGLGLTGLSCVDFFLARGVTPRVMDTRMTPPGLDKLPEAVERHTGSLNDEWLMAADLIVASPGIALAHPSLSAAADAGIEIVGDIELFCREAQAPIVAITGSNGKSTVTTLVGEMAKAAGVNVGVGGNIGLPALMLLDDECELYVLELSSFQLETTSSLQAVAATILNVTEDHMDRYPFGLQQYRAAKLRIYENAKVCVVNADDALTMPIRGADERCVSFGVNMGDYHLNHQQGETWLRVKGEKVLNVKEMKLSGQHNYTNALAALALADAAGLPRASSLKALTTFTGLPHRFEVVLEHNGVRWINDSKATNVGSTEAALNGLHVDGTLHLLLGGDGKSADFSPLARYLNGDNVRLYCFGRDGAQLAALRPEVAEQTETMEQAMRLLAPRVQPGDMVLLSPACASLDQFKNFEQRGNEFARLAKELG
Method: as §7
The buffer is prepared from aqueous reagents with the following final concentrations: 83 mM Tris/HCl (pH 8.0), 50 mM MgCl2, and 2 mM ATP.
as §3, §4, §5, §6, §8

[6] = S. aureus GC 1131, read-out: MIC S. aureus GC 1131
[7] = S. aureus GC 4543, read-out: MIC S. aureus GC 4543
[8] = E. faecalis GC 2242, read-out: MIC E. faecalis GC 2242
[9] = E. faecalis GC 4555, read-out: MIC E. faecalis GC 4555
[10] = (E) E. coli enzyme, read-out: MurC IC50 (converted)

Structure (SMILES)	MIC (Streptococci)	MIC (staphylococci; [6])	MIC (staphylococci; [7])	MIC (enterococci; [8])	MIC (enterococci; [9])	MurC IC50 ([1]; (E) E. coli enzyme)	MurB IC50 [2]	IC50 [3]	MurA IC50 [4]	IC50 [5]	IC50 ([1]; MurC IC50, (E) E. coli enzyme)	IC50 [4]	IC50 [2]	IC50 [1, 10]	MIC S. pneumo GC 1894 (Streptococci)	MIC S. aureus GC 1131 (staphylococci; S. aureus GC 1131)	MIC S. aureus GC 4543 (staphylococci; S. aureus GC 4543)	MIC E. faecalis GC 2242 (enterococci; E. faecalis GC 2242)	MIC E. faecalis GC 4555 (enterococci; E. faecalis GC 4555)
O=C1O/C(=C\c2ccc3ccccc3c2)C(O)=C1c1cccc(C(F)(F)F)c1 [Example 8]	0.25 µg/mL (≈ 0.654 µM)	8 µg/mL (≈ 20.9 µM)	8 µg/mL (≈ 20.9 µM)	4 µg/mL (≈ 10.5 µM)	16 µg/mL (≈ 41.8 µM)	6 (E) μg/mL	11 (E) μg/mL	–	–	–	–	–	–	–	–	–	–	–	–
O=C1O/C(=C\c2ccc(-c3ccccc3)cc2)C(O)=C1c1ccc2ccccc2c1 [Example 45]	2 µg/mL (≈ 5.12 µM)	16 µg/mL (≈ 41 µM)	4 µg/mL (≈ 10.2 µM)	4 µg/mL (≈ 10.2 µM)	8 µg/mL (≈ 20.5 µM)	10 (E) μg/mL	2 (E) μg/mL	> 64 µM	–	–	–	–	–	–	–	–	–	–	–
O=C1O/C(=C\c2cccc(C(F)(F)F)c2)C(O)=C1c1cccc2ccccc12 [Example 48]	8 µg/mL (≈ 20.9 µM)	32 µg/mL (≈ 83.7 µM)	64 µg/mL (≈ 167 µM)	32 µg/mL (≈ 83.7 µM)	> 128 µg/mL	13 (E) μg/mL	–	–	–	–	–	–	–	–	–	–	–	–	–
O=C1O/C(=C\c2ccc(-c3ccccc3)cc2)C(O)=C1c1cccc2ccccc12 [Example 50]	4 µg/mL (≈ 10.2 µM)	8 µg/mL (≈ 20.5 µM)	4 µg/mL (≈ 10.2 µM)	8 µg/mL (≈ 20.5 µM)	32 µg/mL (≈ 82 µM)	9 (E) μg/mL	–	–	16 (E) μg/mL	–	–	–	–	–	–	–	–	–	–
O=C1O/C(=C\c2ccccc2C(F)(F)F)C(O)=C1c1ccc(-c2ccccc2)cc1 [Example 99, 3-[1.1′-Biphenyl]-4-yl-4-hydroxy-5-{(Z)-[2-(trifluoromethyl)benzylidene]}-5H-furan-2-one]	0.25 µg/mL (≈ 0.612 µM)	4 µg/mL (≈ 9.79 µM)	2 µg/mL (≈ 4.9 µM)	4 µg/mL (≈ 9.79 µM)	16 µg/mL (≈ 39.2 µM)	–	–	–	–	> 61.2 µM	9.79 µM	9.79 µM	14.7 µM	–	–	–	–	–	–
O=C1O/C(=C\c2cc(F)cc(C(F)(F)F)c2)C(O)=C1c1cccc(-c2ccccc2)c1 [Example 109]	0.25 µg/mL (≈ 0.586 µM)	2 µg/mL (≈ 4.69 µM)	2 µg/mL (≈ 4.69 µM)	1 µg/mL (≈ 2.35 µM)	4 µg/mL (≈ 9.38 µM)	–	–	–	–	> 58.6 µM	–	–	9.38 µM	23.5 µM	–	–	–	–	–
O=C1O/C(=C\c2cc(F)cc(C(F)(F)F)c2)C(O)=C1c1cccc(-c2ccccc2)c1 [Example 112]	–	–	–	–	–	–	–	–	–	> 58.6 µM	–	–	11.7 µM	23.5 µM	0.25 µg/mL (≈ 0.586 µM)	2 µg/mL (≈ 4.69 µM)	4 µg/mL (≈ 9.38 µM)	2 µg/mL (≈ 4.69 µM)	8 µg/mL (≈ 18.8 µM)
O=C1O/C(=C\c2cc(C(F)(F)F)ccc2F)C(O)=C1c1cccc(-c2ccccc2)c1 [Example 121]	0.5 µg/mL (≈ 1.17 µM)	4 µg/mL (≈ 9.38 µM)	2 µg/mL (≈ 4.69 µM)	8 µg/mL (≈ 18.8 µM)	16 µg/mL (≈ 37.5 µM)	–	–	–	–	–	–	21.1 µM	16.4 µM	21.1 µM	–	–	–	–	–
O=C1O/C(=C\c2cccc(C(F)(F)F)c2)C(O)=C1c1ccc(-c2ccccc2)cc1 [Example 130]	0.5 µg/mL (≈ 1.22 µM)	4 µg/mL (≈ 9.79 µM)	4 µg/mL (≈ 9.79 µM)	8 µg/mL (≈ 19.6 µM)	4 µg/mL (≈ 9.79 µM)	8 (E) μg/mL	–	–	17 (E) μg/mL	–	–	–	22 µM	–	–	–	–	–	–
O=C1O/C(=C\c2ccc(Cl)cc2)C(O)=C1c1ccc(-c2ccccc2)cc1 [Example 139]	1 µg/mL (≈ 2.67 µM)	16 µg/mL (≈ 42.7 µM)	16 µg/mL (≈ 42.7 µM)	4 µg/mL (≈ 10.7 µM)	8 µg/mL (≈ 21.3 µM)	16 (E) μg/mL	–	–	–	–	–	–	16 µM	–	–	–	–	–	–
